Several values for one entry are separate records, joined by “and”; a condition that tells them apart may be missing. Equal values may be shown once. Read-outs that look alike come from different tables or passages of the source.
B1: S4t: T7-transcribed variant similar to S1, used for in-line probing; SEQ ID NO: 51 (nucleic acid)
chain: GGGUCAGAUGAACUUCAGGGUCAGCUCGAGAUACCAGCAUCGACUCUUCGAUGCCCUUGGCAGCUCGGGCUGACCCUGCUAGAGCUGACCCUGAAUCAUCUGACCCUU
modifications: RNA, phosphodiester; further chemistry not fully specified
B2: S1: initial shRNA switch targeting EGFP, theophylline aptamer; Table I (pCS630), SEQ ID NO: 48 (nucleic acid)
chain: GGUGCAGAUGAACUUCAGGGUCAGCUCGAGAUACCAGCAUCGACUCUUCGAUGCCCUUGGCAGCUCGGGCUGACCCUGACUAGAGCUGACCCUGAAUCAUCUGCACCUU

Assays:
[1] = system: EGFP; details: for Basal expression levels (%): GFP(%): median green fluorescence of transfected vs untransfected cells in same well, without ligand, HEK293T tTA-d2EGFP; for η (dynamic range): ratio of GFP(%) at high (3 mM) and low (1 μM) theophylline concentrations
Method: The functionality of shRNA switches was assessed in mammalian cell culture. Applicants transiently transfected plasmids harboring S1 and various switch controls transcribed from a U6 promoter into HEK293T cells stably expressing EGFP (Abbas-Terki et al, 2002).
In this example, Applicants systematically evaluated the tuning capabilities of shRNA switches with the aid of a mathematical model relating ligand concentration and target gene expression levels. Standard model parameters were incorporated to represent each chemical step from the proposed mechanism (Example 7). […] These assumptions yield the following relationship between relative expression levels of the target gene (f; output) and exogenous ligand concentration (L; input): f=1−e·fshRNA[1+KComp(1+KApt·L)]^−h, (1)
The power of this model lies in the ability to calculate realistic parameter values from a minimal set of experiments: fshRNA can be found in one experiment by measuring the relative knockdown of the target gene induced by an shRNA that contributes the shRNA stem, e can be calculated from basal expression levels from a few shRNA switches that strongly prefer the active conformation, and h can be calculated by generating a ligand response curve with one shRNA switch—as long as administration of the highest ligand concentration results in negligible knockdown of the target gene. The remaining model parameters, KComp and KApt, can be found from the same response curve used to calculate […], since varying KApt only changes the EC50 while varying KComp changes both EC50 and basal expression levels. A summary of the model parameters and how values are experimentally obtained are included in Table III below.
To investigate the validity of the model, Applicants experimentally determined model parameter values as described above: fshRNA was equated to the knockdown achieved with the original shRNA targeting EGFP (sh); e was calculated from the average basal expression levels produced by shRNA switches S5, S7, S9, and S10; and KComp, KApt, and h were determined by a model fit of the theophylline response curve for S1. […] The EC50 is related to KApt and KComp according to the following: EC50=(1+KComp^−1)KApt^−1, (4)
Cell culture and transfection. All cells were maintained at 37° C. in a 5% CO2-humidified incubator. HEK293T, HEK293, HeLa, and HEK293T tTA-d2EGFP cells were maintained in minimal essential medium (MEM) alpha media (Invitrogen) supplemented with 10% fetal bovine serum (FBS) (Invitrogen), whereas MDA-MB-231 cells were maintained in RMPI 1640 with glutamine (Invitrogen) supplemented with 10% FBS. Cells were transfected one day after seeding using Fugene 6 (Roche) according to the manufacturer's instructions, followed by the immediate addition of ligand. HEK293T tTA-d2EGFP were transfected with shRNA vector (250 ng), whereas cells lacking endogenous GFP were cotransfected with shRNA vector (250 ng) and the pcDNA3.1(+) (Invitrogen) harboring the d2EGFP gene (25 ng) (Clontech). One day post-transfection the media and ligand were replaced. Transfected cells were collected three days post-transfection for flow cytometry analysis.
Cell fluorescence analysis. Three days post-transfection, cells were trypsinized and subjected to flow cytometry analysis using the Cell Lab Quanta SC MPL (Beckman Coulter). Cells were first gated twice for (1) viability as assessed by electronic volume (EV) versus side scatter (SS) and (2) green fluorescence above autofluorescence to remove a nonfluorescent subpopulation.

[2] = In-line probing of S4t under varying theophylline concentrations; type: binding
Source text: Individual bands from the in-line gel (FIG. 1B) were quantified and normalized to an adjacent constant region to remove bias from inconsistent well loading. C56 bands were normalized to U47 bands, while C74 bands were normalized to U100-G102 bands.
Applicants designed an initial shRNA switch (S1) to target EGFP and respond to theophylline by incorporating an EGFP-targeting guide strand and the theophylline aptamer (Zimmermann et al, 2000) into our switch platform (FIG. 1A). Applicants used in-line probing (Soukup and Breaker, 1999, incorporated herein by reference, and briefly described below) to assess the structural characteristics of a T7-transcribed variant similar to S1 (S4t; FIG. 1B). In-line probing provides structural information from the ligand dependence of spontaneous RNA cleavage. See Materials and Methods section below.
In-line probing. In-line probing was conducted as described previously (Soukup et al, 1999). After heating at 70° C. for 2 min followed by slow cooling to room temperature, 5′ radiolabeled RNAs ([…]) were incubated for 40 hours at 25° C. in varying amounts of theophylline with 50 mM Tris-HCl pH 8.5, 20 mM MgCl2. Reactions were terminated by adding an equal volume of loading buffer (10 M urea, 1.5 mM EDTA). The alkaline hydrolysis ladder was generated by incubating RNA in 50 mM NaHCO3/Na2CO3 pH 9.2, 1 mM EDTA for 6 min at 95° C. The G-specific cleavage ladder was generated by incubating RNA in 1 U RNase T1 (Ambion) with 20 mM sodium citrate pH 5.0, 1 mM EDTA, 7 M urea, and 3 μg yeast RNA for 25 min at 25° C. RNAs were resolved on an 8% denaturing polyacrylamide gel, dried for 90 min at 70° C., then visualized on an FX phosphorimager (BioRAD). Band quantification was performed using the Quantity One software package (BioRAD). To account for well loading variability, quantified band intensities were normalized to an adjacent band of similar intensity showing negligible theophylline dependence.

| Molecule | Basal expression levels (%) [1] | η (dynamic range) [1] | other results |
| --- | --- | --- | --- |
| S16: EGFP shRNA switch, smaller theophylline aptamer; Table I (pCS910) (CTCGATACCAGCCGAAAGGCCCTTGGCAGCGAGCTGACCCTGACTAGA) | 21.7% | 3.85 |  |
| S12: EGFP shRNA switch with theophylline aptamer variant (shorter aptamer stem); Table I (pCS635) (CTCGAGATACCACCGAAAGGCCTTGGCAGCTCGGGCTGACCCTGACTAGA) | 13.4% | 4.06 |  |
| S14: EGFP shRNA switch, smaller theophylline aptamer; Table I (pCS908) (CTCGATACCAGCCGAAAGGCCCTTGGCAGCGAGCTGACCCTGCTAGA) | 14.3% | 2.86 |  |
| S17: EGFP shRNA switch, smaller theophylline aptamer; Table I (pCS941) (CTCGAGATACCAGCCGAAAGGCCCTTGGCAGCTCGAGCTGACCCTGCTAGA) | 17.5% | 3.12 |  |
| S11: EGFP shRNA switch with theophylline aptamer variant (shorter aptamer stem); Table I (pCS634) (CTCGAGATACCAGCCGAAAGGCCCTTGGCAGCTCGGGCTGACCCTGACTAGA) | 20.0% | 4.20 |  |
| S20: EGFP shRNA switch, smaller theophylline aptamer; Table I (pCS1002) (CTCGAGATACCAGCCGAAAGGCCCTTGGCAGCTCGGGCTGACCCTGAAGCTAGA) | 49.8% | 1.75 |  |
| S24: EGFP shRNA switch, smaller theophylline aptamer; Table I (PCS1062) (CTCGAGATACCAGCCGAAAGGCCCTTGGCAGCTCGGGCTGATCCTGCTAGA) | 10.8% | 3.00 |  |
| S21: EGFP shRNA switch, smaller theophylline aptamer; Table I (pCS1003) (CTCGAGATACCAGCCGAAAGGCCCTTGGCAGCTCGGGCTGACCCTGGCTAGA) | 10.8% | 2.52 |  |
| S10: EGFP shRNA switch, larger theophylline aptamer, combined switching strand changes from S4; Table I (pCS808) (CTCGATACCAGCATCGACTCTTCGATGCCCTTGGCAGCGAGCTGACCCTGACTAGA) | 29.4% | 3.60 |  |
| S15: EGFP shRNA switch, smaller theophylline aptamer; Table I (pC5909) (CTCGATACCAGCCGAAAGGCCCTTGGCAGCGGGCTGACCCTGCTAGA) | 11.2% | 2.56 |  |
| S19: EGFP shRNA switch, smaller theophylline aptamer; Table I (pCS1001) (CTCGAGATACCAGCCGAAAGGCCCTTGGCAGCTCGGGCTGACCCTGAACTAGA) | 38.3% | 2.38 |  |
| S13: optimized EGFP shRNA switch, smaller theophylline aptamer; Table I (pCS911) (CTCGAGATACCAGCCGAAAGGCCCTTGGCAGCTCGGGCTGACCCTGCTAGA) | 16.7% | 5.61 |  |
| S25: EGFP shRNA switch, smaller theophylline aptamer; Table I (pCS1063) (CTCGAGATACCAGCCGAAAGGCCCTTGGCAGCTCGGGCTGATCCTGACTAGA) | 11.8% | 2.63 |  |
| S18: EGFP shRNA switch, smaller theophylline aptamer; Table I (pCS942) (CTCGAGATACCAGCCGAAAGGCCCTTGGCAGCTCGAGCTGACCCTACTAGA) | 19.5% | 3.89 |  |
| S22: EGFP shRNA switch, smaller theophylline aptamer; Table I (pCS1004) (CTCGATACCAGCCGAAAGGCCCTTGGCAGCGAGCTGACCCTGAACTAGA) | 35.0% | 2.73 |  |
| S23: EGFP shRNA switch, smaller theophylline aptamer; Table I (pCS1061) (CTCGAGATACCAGCCGAAAGGCCCTTGGCAGCTCGAGCTGATCCTGCTAGA) | 16.6% | 3.30 |  |
| B1 |  |  | KComp solved from in-line assay results ([2]; equation (4) with ratio of apparent KD to KD of aptamer alone): 0.06; ratio of the apparent KD to the KD of the aptamer alone ([2]; theophylline): ~17; Kd ([2]; theophylline, Michaelis-Menten fit, C56 bands normalized to U47, read-out: KD from in-line cleavage at C56): 3.6 µM; Kd ([2]; theophylline, Michaelis-Menten fit, C74 bands normalized to U100-G102, read-out: KD from in-line cleavage at C74): 6.8 µM; Kd ([2]; theophylline, from quantifying cleavage products at two positions, read-out: apparent dissociation constant (KD)): ~5 µM and 5 µM |
| B2 | 33.8% | 2.71 | knockdown of EGFP ([1]; compared to original shRNA (sh) and scrambled shRNA (neg), flow cytometry): intermediate knockdown; e (RNAi processing efficiency) ([1]; from average basal expression levels of switches that highly favor the active conformation): 0.85; theophylline dependence of GFP levels ([1]; in the presence of theophylline): increased in a dose-dependent manner; KComp (partitioning coefficient between active and inactive conformations) ([1]; least-squares model fit of theophylline response curve): 0.17; h (Hill coefficient) ([1]; model fit of theophylline response curve): 1.33; KApt (association constant between ligand and formed aptamer) ([1]; model fit of theophylline response curve in cells): 0.016 µM⁻¹; EC50 ([1]; read-out: effective concentration to achieve 50% activity (EC50), theophylline concentration, GFP levels, HEK293T cells stably expressing EGFP): ~300 µM; fshRNA (relative knockdown by original shRNA) ([1]; set by separate transfection with original shRNA targeting EGFP (sh), parameter of the S1 transfer function): 0.94 |

From patent US8367815B2, “Modular polynucleotides for ligand-controlled regulatory systems” (California Institute of Technology, priority 2007, dated 2013)
